Results published in ChEMBL document CHEMBL1146681, “Design and synthesis of 3,7-diarylimidazopyridines as inhibitors of the VEGF-receptor KDR” (Bioorg Med Chem Lett, 2004).

Experiments:
[1] = target: T1, Vascular endothelial growth factor receptor 2 (Homo sapiens, UniProt P35968); test: Inhibition of VEGF stimulated phosphorylation of KDR on tyrosine residues in human kidney cells expressing vascular endothelial growth factor receptor 2; type: cell-based
[2] = target: T1, Vascular endothelial growth factor receptor 2; test: Intrinsic potency against VEGF stimulated KDR phosphorylation; type: functional
[3] = target: T1, Vascular endothelial growth factor receptor 2; test: Inhibition of phosphorylation of poly-Glu/Tyr (4:1) peptide substrate by VEGF-receptor 2 (KDR) kinase
[4] = target: VEGF-receptor 2 and tyrosine-protein kinase SRC (Homo sapiens) (UniProt P12931+P35968); test: Selectivity for VEGF-receptor 2 over c-Src tyrosine kinase; type: protein assay
Sequence of VEGF-receptor 2 and tyrosine-protein kinase SRC (Homo sapiens) (P12931 whole entry, looked up): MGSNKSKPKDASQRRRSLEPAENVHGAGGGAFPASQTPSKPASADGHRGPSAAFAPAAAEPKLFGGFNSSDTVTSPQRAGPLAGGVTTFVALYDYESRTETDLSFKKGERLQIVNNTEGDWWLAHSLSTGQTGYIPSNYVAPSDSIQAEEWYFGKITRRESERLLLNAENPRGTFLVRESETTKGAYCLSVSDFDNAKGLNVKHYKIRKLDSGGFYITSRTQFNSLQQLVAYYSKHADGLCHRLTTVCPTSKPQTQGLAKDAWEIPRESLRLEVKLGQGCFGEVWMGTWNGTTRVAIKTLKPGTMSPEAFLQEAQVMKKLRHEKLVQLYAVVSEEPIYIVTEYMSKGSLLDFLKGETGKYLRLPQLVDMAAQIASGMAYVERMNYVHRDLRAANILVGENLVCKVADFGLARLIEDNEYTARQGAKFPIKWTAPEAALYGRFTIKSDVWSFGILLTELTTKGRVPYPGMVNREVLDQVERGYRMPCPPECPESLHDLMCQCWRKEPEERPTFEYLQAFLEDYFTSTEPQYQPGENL
Sequence of VEGF-receptor 2 and tyrosine-protein kinase SRC (Homo sapiens) (P35968 whole entry, looked up): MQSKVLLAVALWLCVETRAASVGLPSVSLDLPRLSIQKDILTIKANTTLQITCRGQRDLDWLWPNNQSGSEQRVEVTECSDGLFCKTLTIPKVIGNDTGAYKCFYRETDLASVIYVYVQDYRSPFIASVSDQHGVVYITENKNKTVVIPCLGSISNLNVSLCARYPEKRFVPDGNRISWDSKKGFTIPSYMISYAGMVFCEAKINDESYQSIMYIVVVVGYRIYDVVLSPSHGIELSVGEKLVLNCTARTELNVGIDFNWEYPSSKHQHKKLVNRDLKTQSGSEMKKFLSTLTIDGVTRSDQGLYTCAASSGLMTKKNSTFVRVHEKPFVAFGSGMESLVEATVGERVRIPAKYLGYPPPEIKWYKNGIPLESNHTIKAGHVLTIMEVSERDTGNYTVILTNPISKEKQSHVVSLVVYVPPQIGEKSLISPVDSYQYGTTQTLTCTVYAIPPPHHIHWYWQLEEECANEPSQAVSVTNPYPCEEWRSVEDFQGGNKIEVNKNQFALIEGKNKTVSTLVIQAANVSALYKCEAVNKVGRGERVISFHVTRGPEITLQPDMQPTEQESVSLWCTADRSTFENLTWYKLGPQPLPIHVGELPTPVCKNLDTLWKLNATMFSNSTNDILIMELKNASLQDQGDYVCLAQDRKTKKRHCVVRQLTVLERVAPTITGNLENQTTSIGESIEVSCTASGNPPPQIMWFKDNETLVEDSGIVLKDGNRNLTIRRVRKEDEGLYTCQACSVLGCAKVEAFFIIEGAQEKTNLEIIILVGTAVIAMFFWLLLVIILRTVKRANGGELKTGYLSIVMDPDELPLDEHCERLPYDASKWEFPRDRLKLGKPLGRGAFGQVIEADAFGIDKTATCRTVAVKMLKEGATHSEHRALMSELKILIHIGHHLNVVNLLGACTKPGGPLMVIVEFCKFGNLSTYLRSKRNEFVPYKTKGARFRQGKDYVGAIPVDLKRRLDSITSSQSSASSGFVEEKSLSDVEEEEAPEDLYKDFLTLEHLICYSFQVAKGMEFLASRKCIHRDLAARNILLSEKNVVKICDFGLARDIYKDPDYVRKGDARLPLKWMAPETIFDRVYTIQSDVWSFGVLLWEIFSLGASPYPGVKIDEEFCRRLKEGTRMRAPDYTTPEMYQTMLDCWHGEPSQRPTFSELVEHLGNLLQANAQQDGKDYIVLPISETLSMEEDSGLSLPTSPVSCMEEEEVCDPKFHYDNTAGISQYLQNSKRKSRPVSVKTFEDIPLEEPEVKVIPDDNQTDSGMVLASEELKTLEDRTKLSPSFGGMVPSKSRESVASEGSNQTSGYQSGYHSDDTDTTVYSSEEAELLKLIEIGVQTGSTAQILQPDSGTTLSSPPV

[5] = target: VEGF-receptor 2 and PDGF-receptor beta (KDR and PDGFR beta) (Homo sapiens) (UniProt P09619+P35968); test: Selectivity for VEGFR2 over platelet-derived growth factor receptor beta
[6] = target: Vascular endothelial growth factor receptor 2 and 3 (KDR and Flt-4) (Homo sapiens) (UniProt P35916+P35968); test: Selectivity of for VEGF-receptor 2 over fms-like tyrosine kinase-4, VEGF-receptor 3; type: protein assay
[7] = target: Vascular endothelial growth factor receptor 1 and 2 (Flt-1 and KDR) (Homo sapiens) (UniProt P17948+P35968); test: Selectivity for VEGF-receptor 2 over fms-like tyrosine kinase 1, VEGF-receptor 1; type: protein assay
Sequence of Vascular endothelial growth factor receptor 1 and 2 (Flt-1 and KDR) (Homo sapiens) (P17948 whole entry, looked up): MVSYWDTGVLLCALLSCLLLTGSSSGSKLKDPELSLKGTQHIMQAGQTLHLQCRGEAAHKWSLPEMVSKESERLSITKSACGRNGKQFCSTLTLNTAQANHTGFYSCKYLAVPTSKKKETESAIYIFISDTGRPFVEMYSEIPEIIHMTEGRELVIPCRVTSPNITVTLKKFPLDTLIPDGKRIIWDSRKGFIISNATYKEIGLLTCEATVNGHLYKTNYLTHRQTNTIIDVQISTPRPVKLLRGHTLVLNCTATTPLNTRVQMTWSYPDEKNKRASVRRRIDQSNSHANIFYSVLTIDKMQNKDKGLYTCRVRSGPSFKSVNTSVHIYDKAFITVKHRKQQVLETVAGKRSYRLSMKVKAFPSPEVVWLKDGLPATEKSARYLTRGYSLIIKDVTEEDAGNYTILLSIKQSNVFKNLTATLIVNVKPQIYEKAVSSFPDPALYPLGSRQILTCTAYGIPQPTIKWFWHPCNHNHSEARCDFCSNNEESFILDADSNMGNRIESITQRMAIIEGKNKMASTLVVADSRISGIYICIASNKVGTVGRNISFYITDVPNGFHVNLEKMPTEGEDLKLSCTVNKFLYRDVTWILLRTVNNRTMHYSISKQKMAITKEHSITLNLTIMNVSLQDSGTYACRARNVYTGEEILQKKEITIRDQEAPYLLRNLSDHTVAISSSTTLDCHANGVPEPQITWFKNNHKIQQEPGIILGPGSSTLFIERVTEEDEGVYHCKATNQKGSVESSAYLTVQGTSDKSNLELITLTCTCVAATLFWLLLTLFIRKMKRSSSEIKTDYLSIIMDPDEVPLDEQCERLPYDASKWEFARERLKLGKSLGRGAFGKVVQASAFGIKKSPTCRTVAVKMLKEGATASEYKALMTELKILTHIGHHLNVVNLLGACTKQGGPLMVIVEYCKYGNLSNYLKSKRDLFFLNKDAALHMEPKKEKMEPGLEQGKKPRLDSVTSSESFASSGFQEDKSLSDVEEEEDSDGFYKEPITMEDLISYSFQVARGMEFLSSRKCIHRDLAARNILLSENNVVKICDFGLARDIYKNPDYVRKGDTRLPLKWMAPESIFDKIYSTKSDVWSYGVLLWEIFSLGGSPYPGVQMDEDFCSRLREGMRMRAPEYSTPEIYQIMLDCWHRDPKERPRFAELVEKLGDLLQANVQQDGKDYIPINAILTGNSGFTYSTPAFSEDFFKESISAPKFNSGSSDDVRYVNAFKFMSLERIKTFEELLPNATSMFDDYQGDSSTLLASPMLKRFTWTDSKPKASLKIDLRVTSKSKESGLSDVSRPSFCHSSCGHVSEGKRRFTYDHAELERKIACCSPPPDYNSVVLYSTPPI
Sequence of Vascular endothelial growth factor receptor 1 and 2 (Flt-1 and KDR) (Homo sapiens) (P35968 whole entry, looked up): as the sequence (P35968 whole entry, looked up) above

[8] = target: VEGF-receptor 2 and Fibroblast growth factor receptor 1 (Homo sapiens) (UniProt P35968+P11362); test: Selectivity for VEGF-receptor 2 over fibroblast growth factor receptor 1; type: protein assay
Sequence of VEGF-receptor 2 and Fibroblast growth factor receptor 1 (Homo sapiens) (P11362 whole entry, looked up): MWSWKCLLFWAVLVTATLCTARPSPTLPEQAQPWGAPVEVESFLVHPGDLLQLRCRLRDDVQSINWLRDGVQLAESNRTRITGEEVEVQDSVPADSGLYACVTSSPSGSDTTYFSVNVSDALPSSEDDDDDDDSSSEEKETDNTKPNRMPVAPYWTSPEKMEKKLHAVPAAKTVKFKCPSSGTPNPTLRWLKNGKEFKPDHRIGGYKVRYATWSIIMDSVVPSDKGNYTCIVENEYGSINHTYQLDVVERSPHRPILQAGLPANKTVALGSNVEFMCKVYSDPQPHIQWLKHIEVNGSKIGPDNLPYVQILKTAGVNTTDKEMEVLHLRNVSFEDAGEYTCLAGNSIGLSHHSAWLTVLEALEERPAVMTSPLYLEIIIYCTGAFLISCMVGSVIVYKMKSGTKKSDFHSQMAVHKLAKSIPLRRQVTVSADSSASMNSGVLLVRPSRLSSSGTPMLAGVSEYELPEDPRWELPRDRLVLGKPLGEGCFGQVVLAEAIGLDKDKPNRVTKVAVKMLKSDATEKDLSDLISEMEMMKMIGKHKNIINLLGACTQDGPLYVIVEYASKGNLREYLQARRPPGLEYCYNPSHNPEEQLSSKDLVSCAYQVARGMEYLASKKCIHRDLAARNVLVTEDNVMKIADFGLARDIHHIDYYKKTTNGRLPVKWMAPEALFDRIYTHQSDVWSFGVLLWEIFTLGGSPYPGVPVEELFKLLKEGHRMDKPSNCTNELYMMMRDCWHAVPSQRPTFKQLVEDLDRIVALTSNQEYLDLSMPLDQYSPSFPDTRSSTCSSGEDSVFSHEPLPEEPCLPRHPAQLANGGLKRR
Sequence of VEGF-receptor 2 and Fibroblast growth factor receptor 1 (Homo sapiens) (P35968 whole entry, looked up): as the sequence (P35968 whole entry, looked up) above

[9] = target: Fibroblast growth factor receptor 4 (Homo sapiens) (UniProt P22455); test: Selectivity for fibroblast growth factor receptor 4
Sequence of Fibroblast growth factor receptor 4 (Homo sapiens) (P22455 22-802 limits assumed): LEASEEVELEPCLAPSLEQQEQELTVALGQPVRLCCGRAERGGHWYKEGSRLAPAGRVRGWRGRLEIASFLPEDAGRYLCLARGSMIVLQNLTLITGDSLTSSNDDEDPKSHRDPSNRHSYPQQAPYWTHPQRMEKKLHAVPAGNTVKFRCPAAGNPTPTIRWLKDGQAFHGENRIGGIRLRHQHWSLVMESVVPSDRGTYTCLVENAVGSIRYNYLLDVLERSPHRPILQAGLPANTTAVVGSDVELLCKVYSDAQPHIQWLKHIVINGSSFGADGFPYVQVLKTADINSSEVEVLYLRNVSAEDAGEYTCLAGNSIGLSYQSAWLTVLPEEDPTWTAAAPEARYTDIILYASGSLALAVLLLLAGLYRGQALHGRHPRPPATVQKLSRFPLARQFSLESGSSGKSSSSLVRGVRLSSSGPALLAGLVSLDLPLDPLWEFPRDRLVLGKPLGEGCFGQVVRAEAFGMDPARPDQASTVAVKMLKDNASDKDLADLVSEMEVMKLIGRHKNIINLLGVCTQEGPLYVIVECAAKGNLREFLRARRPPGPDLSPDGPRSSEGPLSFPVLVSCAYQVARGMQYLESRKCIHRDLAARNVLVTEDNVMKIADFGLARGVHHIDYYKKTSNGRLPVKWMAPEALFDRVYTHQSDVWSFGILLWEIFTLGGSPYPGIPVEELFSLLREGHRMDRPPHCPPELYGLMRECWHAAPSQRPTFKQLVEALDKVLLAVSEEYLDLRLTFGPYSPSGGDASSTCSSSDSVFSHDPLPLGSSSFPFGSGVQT

T1 sequence (P35968 whole entry): as the sequence (P35968 whole entry, looked up) above

Structure (SMILES): CC(=O)N1CCN(Cc2ccc(-c3ccn4c(-c5ccccc5)cnc4c3)cc2)CC1
- IC50 [1]: 77 nM
- IC50 [2]: 300 nM

Structure (SMILES): c1ccc(-c2ccn3c(-c4cncs4)cnc3c2)cc1
- IC50 [1]: 99 nM

Structure (SMILES): c1ccc(-c2ccn3c(-c4ccncc4)cnc3c2)cc1
- IC50 [1]: 145 nM

Structure (SMILES): O=c1cc(-c2ccn3c(-c4ccccc4)cnc3c2)ccn1CCCO
- IC50 [1]: 120 nM

Structure (SMILES): COc1ccc(-c2cnc3cc(-c4ccccc4)ccn23)cn1
- IC50 [3]: 2840 nM

Structure (SMILES): COCCN(C)CCCn1ccc(-c2ccn3c(-c4ccccc4)cnc3c2)cc1=O
- IC50 [1]: 96 nM

Structure (SMILES): c1ccc(-c2ccn3c(-c4nccs4)cnc3c2)cc1
- Selectivity [4]: 165
- Selectivity [5]: 1.4
- IC50 [1]: 42 nM
- Selectivity [6]: 1.7
- Selectivity [7]: 7
- Selectivity [8]: 47
- Selectivity [9]: 23

Structure (SMILES): CS(=O)(=O)N1CCN(Cc2ccc(-c3ccn4c(-c5ccccc5)cnc4c3)cc2)CC1
- IC50 [1]: 13 nM
- IC50 [2]: 110 nM

Structure (SMILES): c1ccc(-c2ccn3c(-c4cccnc4)cnc3c2)cc1
- IC50 [1]: 930 nM

Structure (SMILES): CN(C)CC1CCCN(CCCn2ccc(-c3ccn4c(-c5ccccc5)cnc4c3)cc2=O)C1 (configuration not stated)
- IC50 [1]: 67 nM
- IC50 [2]: 280 nM

Structure (SMILES): NC(=O)N1CCN(Cc2ccc(-c3ccn4c(-c5ccccc5)cnc4c3)cc2)CC1
- IC50 [1]: 69 nM

Structure (SMILES): c1ccc(-c2ccn3c(-c4ccccc4)cnc3c2)cc1
- IC50 [1]: 98 nM

Structure (SMILES): c1ccc(-c2ccn3c(-c4cnsc4)cnc3c2)cc1
- IC50 [1]: 50 nM

Structure (SMILES): O=c1cc(-c2ccn3c(-c4ccccc4)cnc3c2)ccn1CCCN1CCCCC1
- Selectivity [4]: 68
- Selectivity [5]: 1
- IC50 [1]: 28 nM
- Selectivity [6]: 2.8
- Selectivity [7]: 3.1
- Selectivity [8]: 60
- IC50 [2]: 51 nM

Structure (SMILES): COc1cccc(-c2cnc3cc(-c4ccccc4)ccn23)n1
- IC50 [1]: 242 nM

Structure (SMILES): CNC(=O)N1CCN(Cc2ccc(-c3ccn4c(-c5ccccc5)cnc4c3)cc2)CC1
- IC50 [1]: 52 nM
- IC50 [2]: 410 nM
